Results reported in patent publication US5466718A, “Tyrosinase inhibitors” (Takasago Institute for Interdisciplinary, priority 1993, dated 1995).
In brackets after ≈: the same amount, converted by molar mass. Where a name gives a salt, the structure may show the parent alone.

Tests used:
[1] = system: Mouse melanoma cell line (ATCC CRL 6322); experiment: Melanin formation inhibition in melanoma cells; type: cell-based; settings: for inhibition at 250 µM: 0.25 mM; for inhibition at 500 µM: 0.5 mM
Experimental: Inhibitory effects on the melanin formation in melanoma cells were tested by the following procedure. Results obtained are shown in Table 5, together with the results obtained with arbutin as a control.
Mouse melanoma cell line (ATCC CRL 6322) was maintained in MEM medium (GIBCO BR, Gaitherburg, Md.) supplemented with 10% heat-inactivated fetal bovine serum described by Maeda (J. Cosmet. Chem., 42, 361 (1991)). More specifically, the cells were cultured on 6-well tissue culture plates (Falcon 3046) with various concentrations of each test compound listed in Table 5 below at 37° C., and at a humidity of 98%, in 5% carbon dioxide atmosphere for 4 days. Cell viability in all tests was determined by Trypan Blue exclusion. The culture media were aspirated, and 1.0 ml of an aqueous 0.25% trypsin solution and an aqueous 0.2% ethylenediaminetetraacetic acid (EDTA) solution were added to each well. Detached cells were placed in an Eppendorf tube, and centrifuged at 1,000 rpm for 5 minutes. The cell pellets thus obtained were mixed with 5% trichloroacetic acid, agitated well, and centrifuged 10,000 rpm to deposit melanin. The melanin pellets were mixed with 1N NaOH for dissolution, and the absorbance at 475 nm was measured, from which melanin formation inhibition (%) was calculated.

mushroom tyrosinase = experiment: Tyrosinase inhibition (mushroom tyrosinase, L-DOPA, dopachrome absorbance at 475 nm); type: biochemical; settings: pH 6.8, 22° C., L-DOPA substrate; concentration with 40 to 60% inhibition in a minimum of two trials taken as IC50
Experimental: Inhibition tests were carried out using aqueous solvents. Saturated stock solutions were prepared by at least 48 hours before the tests were run, which were diluted appropriately upon use in order to increase the solubilities in the aqueous solvents of the lipophilic test compounds.
Tests were carried out according to conventional procedure as follows. That is, 0.01 to 0.02 ml of a mushroom tyrosinase solution (1,375 U/ml, Sigma Chemical Co.), 0.98 to 0.99 ml of a 0.07M phosphate buffer solution (pH 6.8) and 1 ml of a test solution with or without a test compound listed in Table 2 were mixed, and the resulting mixture was incubated at 22° C. for 8 minutes. Then, 1 ml of a 0.03% aqueous solution of I-DOPA (L-3,4-dihydroxyphenylalanine having a purity of 99%, Sigma Chemical Co.) was added thereto. After incubation at 22° C. for 2 minutes, the amount of dopachrome in the reaction mixture was measured as absorbance (optical density) at 475 nm. The change in absorbance with or without different test samples was monitored every 30 seconds for the following 2.5 minutes using a Beckman DU-64 spectrophotometer (Beckman, Palo Alto, Calif.).
Each test compound was repeatedly tested until the 50% inhibitory concentration (IC50) (μg/ml) was determined.
The percent inhibition was calculated according to the following equation: [formula] where A=Absorbance
^A final=Final absorbance
^A initial=Initial absorbance

tyrosinase = experiment: Tyrosinase inhibition (long exposure), melanin formation from L-tyrosine; type: biochemical; settings: test solution 200 μg/ml, pH 6.8, 37° C., L-tyrosine substrate
Experimental: Tyrosinase inhibitory effects of the active compounds of this invention on long exposure were determined using […]. The method of Chen et al. (J. Agric. Food Chem., 39, 8, 1991) was adapted and scaled down for spectrophotometric analysis on a Bio Rad Model 3550 Microplate Reader (Bio-Rad, Richmond, Calif.), which uses 96-well plates. 20 μl of tyrosinase solution containing 0.02 mg/ml of tyrosinase (Sigma Chemical Company) and 76 μl of a test solution of citronellol, geraniol, or farnesol, adjusted to 200 μg/ml with a phosphate buffer solution (pH 6.8) were added to each well. After incubation at 37° C. for 8 minutes, 1 mM L-tyrosine (Sigma Chemical Company) was added as a substrate. Absorbance at 490 nm was measured every 60 seconds for up to 120 minutes to determine how much the amount of melanin produced from tyrosine substrate decreased as a result of the tyrosinase inhibition.

[2] = Mus musculus, 96 h, 4 days, 37° C.

| Compound | IC50 (mushroom tyrosinase) | other results |
| --- | --- | --- |
| OC[C@H]1O[C@@H](Oc2ccc(O)cc2)[C@H](O)[C@@H](O)[C@@H]1O [Arbutin, reference compound] | 63 µg/mL (≈ 231 µM) | inhibition at 125 µM ([1]; Mus musculus, 96 h, 0.125 mM, 4 days, 37° C.): 58%; inhibition at 250 µM [1, 2]: 53%; melanin formation inhibition in melanoma cells ([1]; summary of Table 5, aqueous system): exhibited higher inhibitory effects than the active compounds of the present invention |
| CC(C)=CCCC(C)CC=O (centres unmarked) [Citronellal] | 9.4 µg/mL (≈ 60.9 µM) | – |
| CC(C)=CCCC(C)CCO (centres unmarked) [Citronellol] | 6.3 µg/mL (≈ 40.3 µM) | Inhibition Ratio (%) on Melanin Formation (tyrosinase; 0 minute): 0%; Inhibition Ratio (%) on Melanin Formation (tyrosinase; 30 minute): 39.6%; Inhibition Ratio (%) on Melanin Formation (tyrosinase; 120 minute): 43.8%; inhibition at 250 µM [1, 2]: 25%; inhibition at 500 µM [1, 2]: 25% |
| CC(C)=CCCC(C)CC#N (centres unmarked) [Citronellyinitrile, citronellylnitrile] | 9.4 µg/mL (≈ 62.1 µM) | – |
| CC(=O)OCCC(C)CCC=C(C)C (centres unmarked) [Citronellyl acetate] | 18.8 µg/mL | – |
| CC(C)=CCCC(C)CCOC(=O)c1ccccc1 (centres unmarked) [Citronellyl benzoate] | 6.3 µg/mL (≈ 24.2 µM) | – |
| CCCC(=O)OCCC(C)CCC=C(C)C (centres unmarked) [Citronellyl butyrate] | 37.5 µg/mL (≈ 166 µM) | – |
| CC(C)=CCCC(C)CCOC=O (centres unmarked) [Citronellyl formate] | 6.3 µg/mL | – |
| CC(C)=CCCC(C)CCOC(=O)C(C)C (centres unmarked) [Citronellyl isobutyrate] | 6.3 µg/mL (≈ 27.8 µM) | inhibition at 250 µM [1, 2]: 31%; inhibition at 500 µM [1, 2]: 56% |
| CCC(=O)OCCC(C)CCC=C(C)C (centres unmarked) [Citronellyl propionate] | 12.5 µg/mL (≈ 58.9 µM) | – |
| CCCCCCCCCCO [Decanol] | 12.5 µg/mL (≈ 79 µM) | – |
| C=CC(C)CCCC(C)(C)O (centres unmarked) [Dihydromyrcenol] | 12.5 µg/mL (≈ 80 µM) | – |
| CC(C)=CCCC(C)=CCCC(C)=CCO [Farnesol] | 12.5 µg/mL (≈ 56.2 µM) | Inhibition Ratio (%) on Melanin Formation (tyrosinase; 0 minute): 0%; Inhibition Ratio (%) on Melanin Formation (tyrosinase; 30 minute): 23.6%; Inhibition Ratio (%) on Melanin Formation (tyrosinase; 120 minute): 31.9% |
| CC(C)=CCCC(C)=CCCC(C)=CCOC(=O)c1ccccc1 [Farnesyl benzoate] | 25.0 µg/mL (≈ 76.6 µM) | – |
| CC(C)=CCCC(C)=CCCC(C)=CCOC(=O)C(C)C [Farnesyl isobutyrate] | 12.5 µg/mL (≈ 42.7 µM) | – |
| CC(C)=CCCC(C)=CCCC(C)=CCOC(=O)Cc1ccccc1 [Farnesyl phenylacetate] | 12.5 µg/mL (≈ 36.7 µM) | – |
| CC(C)=CCC/C(C)=C/CO [Geraniol] | 6.3 µg/mL (≈ 40.8 µM) | Inhibition Ratio (%) on Melanin Formation (tyrosinase; 0 minute): 0%; Inhibition Ratio (%) on Melanin Formation (tyrosinase; 30 minute): 37.3%; Inhibition Ratio (%) on Melanin Formation (tyrosinase; 120 minute): 48.5%; inhibition at 250 µM [1, 2]: 30%; inhibition at 500 µM [1, 2]: 18% |
| CC(C)=CCC/C(C)=C/COC(=O)C(C)C [Geranyl isobutyrate] | 12.5 µg/mL (≈ 55.7 µM) | – |
| C=CC(C)(O)CCC=C(C)CCC=C(C)C (centres unmarked) [Nerolidol] | 12.5 µg/mL (≈ 56.2 µM) | – |
| CCCCCCCCO [Octanol] | 12.5 µg/mL (≈ 96 µM) | – |
